{"source": "PubChem BioAssay (NCI)", "assay_in_all_cases": "inhibition of tumour cell growth, NCI panel, 384-well format", "key": {"ACHN renal": {"system": "ACHN renal"}, "CAKI-1 renal": {"system": "CAKI-1 renal"}, "CCRF-CEM leukemia": {"system": "CCRF-CEM leukemia"}, "COLO 205 colon": {"system": "COLO 205 colon"}, "DU-145 prostate": {"system": "DU-145 prostate"}, "EKVX NSCLC": {"system": "EKVX NSCLC"}, "HCC-2998 colon": {"system": "HCC-2998 colon"}, "HCT-116 colon": {"system": "HCT-116 colon"}, "HCT-15 colon": {"system": "HCT-15 colon"}, "HL-60(TB) leukemia": {"system": "HL-60(TB) leukemia"}, "HS 578T breast": {"system": "HS 578T breast"}, "HT29 colon": {"system": "HT29 colon"}, "IGROV1 ovarian": {"system": "IGROV1 ovarian"}, "K-562 leukemia": {"system": "K-562 leukemia"}, "KM12 colon": {"system": "KM12 colon"}, "LOX IMVI melanoma": {"system": "LOX IMVI melanoma"}, "M14 melanoma": {"system": "M14 melanoma"}, "MALME-3M melanoma": {"system": "MALME-3M melanoma"}, "MCF7 breast": {"system": "MCF7 breast"}, "MDA-MB-435 melanoma": {"system": "MDA-MB-435 melanoma"}, "MDA-MB-468 breast": {"system": "MDA-MB-468 breast"}, "MOLT-4 leukemia": {"system": "MOLT-4 leukemia"}, "NCI-H226 lung": {"system": "NCI-H226 lung"}, "NCI-H23 lung": {"system": "NCI-H23 lung"}, "NCI-H522 lung": {"system": "NCI-H522 lung"}, "NCI/ADR-RES ovarian": {"system": "NCI/ADR-RES ovarian"}, "OVCAR-4 ovarian": {"system": "OVCAR-4 ovarian"}, "OVCAR-5 ovarian": {"system": "OVCAR-5 ovarian"}, "PC-3 prostate": {"system": "PC-3 prostate"}, "RPMI-8226 leukemia": {"system": "RPMI-8226 leukemia"}, "RXF 393 renal": {"system": "RXF 393 renal"}, "SF-268 CNS": {"system": "SF-268 CNS"}, "SF-295 CNS": {"system": "SF-295 CNS"}, "SF-539 CNS": {"system": "SF-539 CNS"}, "SK-MEL-2 melanoma": {"system": "SK-MEL-2 melanoma"}, "SK-MEL-28 melanoma": {"system": "SK-MEL-28 melanoma"}, "SK-MEL-5 melanoma": {"system": "SK-MEL-5 melanoma"}, "SK-OV-3 ovarian": {"system": "SK-OV-3 ovarian"}, "SN12C renal": {"system": "SN12C renal"}, "SNB-19 CNS": {"system": "SNB-19 CNS"}, "SNB-75 CNS": {"system": "SNB-75 CNS"}, "SR leukemia": {"system": "SR leukemia"}, "T-47D breast": {"system": "T-47D breast"}, "TK-10 renal": {"system": "TK-10 renal"}, "U251 glioblastoma": {"system": "U251 glioblastoma"}, "UACC-62 melanoma": {"system": "UACC-62 melanoma"}, "UO-31 renal": {"system": "UO-31 renal"}}, "note": "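GI50: concentration for 50% inhibition of growth. TGI: concentration producing complete growth inhibition.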"}
{"smiles": "CCS(=O)(=O)N1CCC(C(C)n2c(C)c(C(=O)NCc3c(OC)cc(C)[nH]c3=O)c3ccccc32)CC1", "note": "(centres undefined)", "values": [{"measurement": "GI50", "setting": "ACHN renal", "value": "> 100", "unit": "µM"}, {"measurement": "TGI", "setting": "ACHN renal", "value": "> 100", "unit": "µM"}, {"measurement": "GI50", "setting": "CAKI-1 renal", "value": "> 100", "unit": "µM"}, {"measurement": "TGI", "setting": "CAKI-1 renal", "value": "> 100", "unit": "µM"}, {"measurement": "GI50", "setting": "CCRF-CEM leukemia", "value": "> 100", "unit": "µM"}, {"measurement": "TGI", "setting": "CCRF-CEM leukemia", "value": "> 100", "unit": "µM"}, {"measurement": "GI50", "setting": "COLO 205 colon", "value": "> 100", "unit": "µM"}, {"measurement": "TGI", "setting": "COLO 205 colon", "value": "> 100", "unit": "µM"}, {"measurement": "GI50", "setting": "DU-145 prostate", "value": "> 100", "unit": "µM"}, {"measurement": "TGI", "setting": "DU-145 prostate", "value": "> 100", "unit": "µM"}, {"measurement": "GI50", "setting": "EKVX NSCLC", "value": "> 100", "unit": "µM"}, {"measurement": "TGI", "setting": "EKVX NSCLC", "value": "> 100", "unit": "µM"}, {"measurement": "GI50", "setting": "HCC-2998 colon", "value": "> 100", "unit": "µM"}, {"measurement": "TGI", "setting": "HCC-2998 colon", "value": "> 100", "unit": "µM"}, {"measurement": "GI50", "setting": "HCT-116 colon", "value": "> 100", "unit": "µM"}, {"measurement": "TGI", "setting": "HCT-116 colon", "value": "> 100", "unit": "µM"}, {"measurement": "GI50", "setting": "HCT-15 colon", "value": "> 100", "unit": "µM"}, {"measurement": "TGI", "setting": "HCT-15 colon", "value": "> 100", "unit": "µM"}, {"measurement": "GI50", "setting": "HL-60(TB) leukemia", "value": "> 100", "unit": "µM"}, {"measurement": "TGI", "setting": "HL-60(TB) leukemia", "value": "> 100", "unit": "µM"}, {"measurement": "GI50", "setting": "HS 578T breast", "value": "> 100", "unit": "µM"}, {"measurement": "TGI", "setting": "HS 578T breast", "value": "> 100", "unit": "µM"}, {"measurement": "GI50", "setting": "HT29 colon", "value": "> 100", "unit": "µM"}, {"measurement": "TGI", "setting": "HT29 colon", "value": "> 100", "unit": "µM"}, {"measurement": "GI50", "setting": "IGROV1 ovarian", "value": "> 100", "unit": "µM"}, {"measurement": "TGI", "setting": "IGROV1 ovarian", "value": "> 100", "unit": "µM"}, {"measurement": "GI50", "setting": "K-562 leukemia", "value": "> 100", "unit": "µM"}, {"measurement": "TGI", "setting": "K-562 leukemia", "value": "> 100", "unit": "µM"}, {"measurement": "GI50", "setting": "KM12 colon", "value": "> 100", "unit": "µM"}, {"measurement": "TGI", "setting": "KM12 colon", "value": "> 100", "unit": "µM"}, {"measurement": "GI50", "setting": "LOX IMVI melanoma", "value": "> 78.6", "unit": "µM"}, {"measurement": "TGI", "setting": "LOX IMVI melanoma", "value": "> 100", "unit": "µM"}, {"measurement": "GI50", "setting": "M14 melanoma", "value": "> 100", "unit": "µM"}, {"measurement": "TGI", "setting": "M14 melanoma", "value": "> 100", "unit": "µM"}, {"measurement": "GI50", "setting": "MALME-3M melanoma", "value": "> 100", "unit": "µM"}, {"measurement": "TGI", "setting": "MALME-3M melanoma", "value": "> 100", "unit": "µM"}, {"measurement": "GI50", "setting": "MCF7 breast", "value": "> 78.3", "unit": "µM"}, {"measurement": "TGI", "setting": "MCF7 breast", "value": "> 100", "unit": "µM"}, {"measurement": "GI50", "setting": "MDA-MB-435 melanoma", "value": "> 100", "unit": "µM"}, {"measurement": "TGI", "setting": "MDA-MB-435 melanoma", "value": "> 100", "unit": "µM"}, {"measurement": "GI50", "setting": "MDA-MB-468 breast", "value": 40, "unit": "µM"}, {"measurement": "TGI", "setting": "MDA-MB-468 breast", "value": "> 100", "unit": "µM"}, {"measurement": "GI50", "setting": "MOLT-4 leukemia", "value": 42.4, "unit": "µM"}, {"measurement": "TGI", "setting": "MOLT-4 leukemia", "value": "> 100", "unit": "µM"}, {"measurement": "GI50", "setting": "NCI-H226 lung", "value": "> 100", "unit": "µM"}, {"measurement": "TGI", "setting": "NCI-H226 lung", "value": "> 100", "unit": "µM"}, {"measurement": "GI50", "setting": "NCI-H23 lung", "value": "> 100", "unit": "µM"}, {"measurement": "TGI", "setting": "NCI-H23 lung", "value": "> 100", "unit": "µM"}, {"measurement": "GI50", "setting": "NCI-H522 lung", "value": "> 100", "unit": "µM"}, {"measurement": "TGI", "setting": "NCI-H522 lung", "value": "> 100", "unit": "µM"}, {"measurement": "GI50", "setting": "NCI/ADR-RES ovarian", "value": "> 100", "unit": "µM"}, {"measurement": "TGI", "setting": "NCI/ADR-RES ovarian", "value": "> 100", "unit": "µM"}, {"measurement": "GI50", "setting": "OVCAR-4 ovarian", "value": "> 100", "unit": "µM"}, {"measurement": "TGI", "setting": "OVCAR-4 ovarian", "value": "> 100", "unit": "µM"}, {"measurement": "GI50", "setting": "OVCAR-5 ovarian", "value": "> 100", "unit": "µM"}, {"measurement": "TGI", "setting": "OVCAR-5 ovarian", "value": "> 100", "unit": "µM"}, {"measurement": "GI50", "setting": "PC-3 prostate", "value": "> 100", "unit": "µM"}, {"measurement": "TGI", "setting": "PC-3 prostate", "value": "> 100", "unit": "µM"}, {"measurement": "GI50", "setting": "RPMI-8226 leukemia", "value": 7.49, "unit": "µM"}, {"measurement": "TGI", "setting": "RPMI-8226 leukemia", "value": "> 86.4", "unit": "µM"}, {"measurement": "GI50", "setting": "RXF 393 renal", "value": "> 100", "unit": "µM"}, {"measurement": "TGI", "setting": "RXF 393 renal", "value": "> 100", "unit": "µM"}, {"measurement": "GI50", "setting": "SF-268 CNS", "value": "> 42.6", "unit": "µM"}, {"measurement": "TGI", "setting": "SF-268 CNS", "value": "> 96.3", "unit": "µM"}, {"measurement": "GI50", "setting": "SF-295 CNS", "value": "> 100", "unit": "µM"}, {"measurement": "TGI", "setting": "SF-295 CNS", "value": "> 100", "unit": "µM"}, {"measurement": "GI50", "setting": "SF-539 CNS", "value": "> 100", "unit": "µM"}, {"measurement": "TGI", "setting": "SF-539 CNS", "value": "> 100", "unit": "µM"}, {"measurement": "GI50", "setting": "SK-MEL-2 melanoma", "value": "> 100", "unit": "µM"}, {"measurement": "TGI", "setting": "SK-MEL-2 melanoma", "value": "> 100", "unit": "µM"}, {"measurement": "GI50", "setting": "SK-MEL-28 melanoma", "value": "> 100", "unit": "µM"}, {"measurement": "TGI", "setting": "SK-MEL-28 melanoma", "value": "> 100", "unit": "µM"}, {"measurement": "GI50", "setting": "SK-MEL-5 melanoma", "value": "> 100", "unit": "µM"}, {"measurement": "TGI", "setting": "SK-MEL-5 melanoma", "value": "> 100", "unit": "µM"}, {"measurement": "GI50", "setting": "SK-OV-3 ovarian", "value": "> 100", "unit": "µM"}, {"measurement": "TGI", "setting": "SK-OV-3 ovarian", "value": "> 100", "unit": "µM"}, {"measurement": "GI50", "setting": "SN12C renal", "value": "> 100", "unit": "µM"}, {"measurement": "TGI", "setting": "SN12C renal", "value": "> 100", "unit": "µM"}, {"measurement": "GI50", "setting": "SNB-19 CNS", "value": "> 100", "unit": "µM"}, {"measurement": "TGI", "setting": "SNB-19 CNS", "value": "> 100", "unit": "µM"}, {"measurement": "GI50", "setting": "SNB-75 CNS", "value": "> 100", "unit": "µM"}, {"measurement": "TGI", "setting": "SNB-75 CNS", "value": "> 100", "unit": "µM"}, {"measurement": "GI50", "setting": "SR leukemia", "value": "> 100", "unit": "µM"}, {"measurement": "TGI", "setting": "SR leukemia", "value": "> 100", "unit": "µM"}, {"measurement": "GI50", "setting": "T-47D breast", "value": "> 64.5", "unit": "µM"}, {"measurement": "TGI", "setting": "T-47D breast", "value": "> 100", "unit": "µM"}, {"measurement": "GI50", "setting": "TK-10 renal", "value": "> 100", "unit": "µM"}, {"measurement": "TGI", "setting": "TK-10 renal", "value": "> 100", "unit": "µM"}, {"measurement": "GI50", "setting": "U251 glioblastoma", "value": "> 100", "unit": "µM"}, {"measurement": "TGI", "setting": "U251 glioblastoma", "value": "> 100", "unit": "µM"}, {"measurement": "GI50", "setting": "UACC-62 melanoma", "value": "> 100", "unit": "µM"}, {"measurement": "TGI", "setting": "UACC-62 melanoma", "value": "> 100", "unit": "µM"}, {"measurement": "GI50", "setting": "UO-31 renal", "value": "> 100", "unit": "µM"}, {"measurement": "TGI", "setting": "UO-31 renal", "value": "> 100", "unit": "µM"}]}
